The text below walks through data of US10759774B2, “Inhibitors of hepatitis B virus targeting capsid assembly” (THE CURATORS OF THE UNIVERSITY OF MISSOURI, priority 2017, dated 2020).

In series [1] the test system is HBV. To be noted: rodent models; cited from earlier work.
The conditions of series [2]: high doses; cited from earlier work.
Series [3] relates to primary human hepatocytes. Conditions: cited from earlier work.
The test system of series [4] is HBV. In words: Cell-based anti-HBV activity of HF9C6 analogs (Table 2; HBV DNA in HepAD38 cells). Conditions: Hepatitis B virus, Table 2, cell-based, read-out: EC50. The procedure: (§1) HepAD38 cells (5×10^4) were plated in 96-well plates in tet media. The next day, cells were washed 2× with PBS, and the media was replaced with complete media (DMEM, 10% FBS) containing compounds. Fresh complete media with compounds was added again after 2 days. After 2 additional days, cells were washed with PBS, trypsinized, and pelleted by centrifugation. The cell pellet was resuspended in 200 μl PBS, and DNA was extracted and analyzed as above. For dose responses, values were plotted in GraphPad Prism 5 and analyzed with the log (inhibitor) vs. normalized response—variable slope equation.
HepAD38 cells were seeded in 96-well plates (3×10^4 cells/well) in tet media. […] After 2 days, the media was removed, and fresh media containing compounds was added. After 2 additional days, cells were washed with PBS and lysed with 10 mM Tris (pH 7.5), 1mM EDTA, 100mM NaCl, 1% NP-40 at 37° C. for 30 min. 60 μl of lysate was added to 60 μl of 1 M NaOH, 1.5 M NaCl and incubated at RT for 5 min to denature DNA. 120 μl of 1 M Tris (pH 7.4), 2 M NaCl was added. Samples were transferred to positively charged nylon membranes (Roche) using a vacuum dot blot manifold. The wells were washed with 200 μl of 20× SSC (3M NaCl, 300 mM sodium citrate), and the DNA was UV crosslinked to the membranes. […] Membranes were incubated with CDP-STAR® chemiluminescent substrate (Roche), imaged by chemiluminescence, and quantified by densitometry. Values were plotted in GraphPad Prism 5 and analyzed with the log (inhibitor) vs. normalized response—variable slope equation.

In series [5] the target is T1, HBV capsid protein (Cp) (Hepatitis B virus genotype D subtype ayw, UniProt P03146). To be noted: HepAD38 cells; 20 μM.
Series [6] is described as follows: Cytotoxicity, Cell Proliferation Kit II (XTT) (Table 2). It counts as cell-based. To be noted: human.
A short description of series [7]: Cytotoxicity with the XTT assay (Table 1). To be noted: human, HepAD38 cells.
For a further series, the system named is HepAD38 cells. The experiment in a line: Cytotoxicity with the XTT assay (Table 1).
Another series concerns HBV Cp T109I mutant. In words: HBV core-associated DNA by qPCR in Huh7 cells transfected with Cp mutant plasmid. The class given is cell-based, hepatitis B virus (HBV). To be noted: single dose: Bay 38-7690 500 nM, DVR-56 250 nM, ZW-935 250 nM, HF9C6 4 μM. The source says:
(§2) The binding site for HAPs and SBAs has been found using X-ray crystallography and mutagenesis techniques. […] To probe this binding site, HBV-expressing plasmids with mutations in Cp (Y118F, T109S, T109M, T109I, I105V, I105L, and I105T) were generated (Klumpp, et al., Proc. Natl. Acad. Sci. USA 112:15196-15201, 2015).

Another series concerns HBV Cp T109S mutant. Described as above. Conditions: single dose: Bay 38-7690 500 nM, DVR-56 250 nM, ZW-935 250 nM, HF9C6 4 μM. It counts as cell-based, hepatitis B virus (HBV).
Excerpt: as §2

For a further series, the system named is HBV Cp I105V mutant. The series is described as above. The class given is cell-based, hepatitis B virus (HBV). To be noted: single dose: DVR-56 250 nM, ZW-935 250 nM, HF9C6 4 μM.
Excerpt: as §2

In another series the test system is HBV wild-type (WT) Cp. The experiment in a line: HBV core-associated DNA by qPCR in Huh7 cells transfected with wild-type plasmid. Conditions: Bay 38-7690 500 nM, DVR-56 250 nM, ZW-935 250 nM, HF9C6 4 μM. It counts as cell-based, hepatitis B virus (HBV).
The test system of series [8] is HBV. In words: Antiviral screening / dose response, total intracellular HBV DNA by qPCR in HepAD38 cells. It counts as cell-based, hepatitis B virus (HBV). Conditions: for SI (Selectivity Index): CC50/EC50; for SI (Selectivity Index) / EC50: Table 1; for EC50: Hepatitis B virus, HepAD38 cells, total intracellular HBV DNA as marker. Here is the method: HepAD38 cells (ATCC; Ladner, et al., Antimicrob. Agents Chemother. 41:1715-1720, 1997) were maintained in tet media [Dulbecco's Modified Eagle Medium (DMEM) and 10% fetal bovine serum (FBS) plus 0.4 μg/ml tetracycline (tet) and 400 μg/ml G418 (Gibco; Gaithersburg, Md.)]. Cells were incubated at 37° C. with 5% CO2.
Total DNA from HBV-infected cells was extracted using the QIAamp DNA Blood Mini Kit (Qiagen, Germantown, Md.). […] Amplification was conducted by denaturation at 95° C. for 10 min, followed by 40 cycles of denaturation at 95° C. for 15 s and annealing/extension at 60° C. for 1 min using PerfeCTa SYBR® Green FastMix reaction cocktail (Quanta Biosciences, Beverly, Mass.). Amplification was carried out in a PIKOREAL™ Real-Time PCR System. A standard curve was generated with dilutions of the HBV genome-containing plasmid pCMV-HBV-LE-II (Tavis, et al., PLoS Pathogens 9:e1003125, 2013).
as §1
For antiviral screening, HepAD38 cells were treated with 10 μM of each hit compound, and anti-HBV activity was determined by the level of viral DNA.

The target of series [9] is T1, HBV capsid protein (Cp). To be noted: HepAD38 cells; concentrations up to 20 μM (~5×EC50).
Series [10] addresses T2, C1502 (HBV capsid protein assembly domain dimer) (Hepatitis B virus genotype D subtype adw, UniProt P03147, R150C).
T2 construct: the 149 amino acid assembly domain of HBV capsid protein; made in house; host or cells: E. coli BL21 (DE3), pET11a
In words: In vitro capsid assembly analyzed by transmission electron microscopy (TEM). It counts as biochemical. To be noted: C1502 10 μM assembled with compound 20 μM. An excerpt: Capsids assembled in the presence of the carrier DMSO were spherical, ˜40 nm in diameter, and dispersed across the TEM grid.

Series [11] has as its system HBV. To be noted: cited from earlier work.

For `COC(=O)C1=C(C)NC(c2ncc(F)cc2F)=N[C@H]1c1ccc(F)cc1Cl` [Bay 41-4109], the “inhibition of the virus replication cycle” value in the series with HBV [1] is “inhibit the virus replication cycle”. Moreover, the hepatotoxicity result in series [2] is given as “hepatotoxic”.

As for `CCOC(=O)C1=C(CN2CCOCC2)NC(c2nccs2)=NC1c1ccc(F)cc1Br` (stereo not drawn) [GLS-4, morphothiadine mesilate], in series [3], the “toxicity to primary human hepatocytes” value is reported as “much less toxic”.

`Cc1c(C(=O)Nc2ccccc2)sc(N)c1C(N)=O` [HF9C6]: in the series on HBV [4], the EC50 amounted to 34 ± 0.6 µM. On HBV capsid protein (Cp) [5], the “Cp distribution/aggregation in cells” value is “concentrated in large foci throughout the cell” and the Cp nuclear localization result was “excluded from the nucleus”. The molecule also had a CC50 in series [6] (HepG2 cells) of over 100 µM. This molecule showed a CC50 in series [7] of over 300 µM. Besides, in the series with HepAD38 cells, the “cytotoxicity (in words)” value is given as “no observable cytotoxicity”. In the series with HBV Cp T109I mutant, the “resistance profile, T109I mutant” value is “hypersusceptibility”. Also, in the series with HBV Cp T109S mutant, the “resistance profile, T109S mutant” value is “resistance”. In the series on HBV Cp I105V mutant, the “resistance profile, I105V mutant” value is “does not impart significant resistance”. In the series with HBV wild-type (WT) Cp, the “suppression of viral DNA production” value was determined as 75%. In the series on HBV [8], the “SI (Selectivity Index)” value is over 83 and the 50% effective concentration (EC50) was found to be 3.6 ± 0.2 µM. The “reduction of HBV DNA” value in the series with HBV [8] (HepAD38 cells treated with 10 μM, vs DMSO control) was about 80%. The “Cp levels (Western blot)” value on HBV capsid protein (Cp) [9] is “did not reduce Cp levels”. Also, in [10], the “capsid morphology by TEM” value is “heterogeneous in shape and size, and formed large aggregates on the grid”.

In the case of `Nc1ccn([C@@H]2CS[C@H](CO)O2)c(=O)n1` [Lamivudine (3TC), Lamivudine, reference compound], the CC50 in series [7] was over 100 µM. Besides, in the series with HBV [8], the “SI (Selectivity Index)” value is on record as >1,111 and the midpoint of the response, the EC50, lay at 0.09 ± 0.01 µM.

In turn, `Cc1cc(NC(=O)c2sc(N)c(C(N)=O)c2C)ccc1F` [ZW-935, 5-Amino-N2-(4-fluoro-3-methylphenyl)-3-methylthiophene-2,4-dicarboxamide] showed a 50% cytotoxic concentration (CC50) in series [6] (HepG2 cells) of over 100 µM. In the series on HBV Cp T109I mutant, the “resistance profile, T109I mutant” value is reported as “hypersusceptibility”. For the same molecule, in the series with HBV Cp T109S mutant, the “resistance profile, T109S mutant” value is “resistance”. In addition, the “resistance profile, I105V mutant” value in the series with HBV Cp I105V mutant is on record as “does not impart significant resistance”. In the series with HBV wild-type (WT) Cp, the “suppression of viral DNA production” value amounted to 75%.

For `CCOC(=O)c1c(N)sc(C(=O)Nc2ccccc2)c1C` [ZW-1045, Ethyl 2-amino-4-methyl-5-(phenylcarbamoyl)thiophene-3-carboxylate], the 50% effective concentration (EC50) in the series on HBV [4] is over 10 µM. In [6], this molecule registered a CC50 of 75.9 ± 1.8 µM.

As for `Cc1c(C(=O)Nc2ccccc2)sc(NC(=O)Cc2ccc(F)c(F)c2)c1C(N)=O` [ZW-1050], the EC50 in the series on HBV [4] was about 10 µM. Further, the half-maximal cytotoxic concentration (CC50) in [6] (HepG2 cells) was over 100 µM.

Turning to `Cc1ccc(CC(=O)Nc2sc(C(=O)Nc3ccccc3)c(C)c2C(N)=O)cc1F` [ZW-1051, 5-(2-(3-Fluoro-4-methylphenyl)acetamido)-3-methyl-N2-phenylthiophene-2,4-dicarboxamide], the EC50 in the series on HBV [4] was over 10 µM. For the same molecule, in series [6] (HepG2 cells), the CC50 was over 100 µM.

On to IFN-α, for which, in the series with HBV [11], the “virological response, share of patients” value is recorded as under 10%.
